According to patent US20260337231A1, “METHOD FOR PRODUCING CYCLIC PEPTIDE COMPOUND” (CHUGAI SEIYAKU KABUSHIKI KAISHA, priority 2023, published 2026):

Tests used:
Type in all cases: physicochemical
[1] = Thermogravimetry-differential thermal analysis (TG-DTA); conditions: 10° C./min, nitrogen
Protocol: The thermogravimetry-differential thermal analysis (TG-DTA) for Example 3-8, Example 3-9, Example 3-12, Example 3-13, Example 3-17, and Example 3-19 was performed under the following conditions. • Measurement apparatus: STA7200RV+AS-3T (manufactured by Hitachi High-Tech Science Corporation) • Measurement range: 30 to 350° C. • Heating rate: 10° C./min • Atmosphere: nitrogen • Measurement: The sample was weighed in an open aluminum pan and covered with a mesh to perform the measurement.

[2] = Powder X-ray diffraction measurement at each relative humidity (influence of humidity on the crystal form); conditions: 35.0 °C
Protocol: (§1) The powder X-ray diffraction measurement for Example 3-12 was performed under the following conditions to evaluate the crystal form at each relative humidity. The measurement was carried out at the time points between dropping the relative humidity to 0% and raising it to 90%: 0% (FIG. 21(A)), 10% (FIG. 21(B)), 20% (FIG. 21(C)), 50% (FIG. 21(D)), and 90% (FIG. 21(E)). • Measurement apparatus: SmartLab System, D/Tex Ultra detector, humidity generator HUM-SL (manufactured by Rigaku Corporation) • Radiation source: CuKα1 • Tube voltage: 45 kV • Tube current: 200 mA • Scanning range: 4 to 35° • Scanning speed: 5°/min • Sampling width: 0.02° • Humidity change conditions:
as §1, with “3-13” for “3-12”, “24(A)), 30%” for “21(A)), 10%”, “24(B)),” for “21(B)), 20% (FIG. 21(C)),”, “24(C)),” for “21(D)),”, “24(D)).” for “21(E)).”, “conditions: […]” for “conditions:”

[3] = Slurry conversion experiment (form A, form B and form K crystals mixed and shaken in mixed solvent); conditions: 25° C., 2000 rpm
Protocol: The powder X-ray diffraction measurement for Example 3-2, Example 3-3, Example 3-4, Example 3-5, Example 3-6, Example 3-7, Example 3-9, Example 3-16, Example 3-17, Example 3-22, Example 5-1, Example 5-2, Example 5-3, Example 5-4, Example 5-5, Example 5-6, Example 5-7, Example 5-8, and Example 5-9 was performed under the following conditions. • Measurement apparatus: D8 Discover, 2D VANTEC-500 solid state detector (manufactured by Bruker) • Radiation source: CuKα • Tube voltage and tube current: 50 kV and 1000 μA • Measurement range: 5 to 31° • Exposure time: 40 seconds
The form A crystal (3.0 mg), form B crystal (3.0 mg), and form K crystal (3.0 mg) of compound 1 were mixed, and a mixed solvent of acetone-heptane (1:1 (v/v), 0.030 mL) and one grain of glass bead were added. Using a shaker (BioShaker M⋅BR-022UP manufactured by TAITEC CORPORATION), the mixture was shaken at 25° C., 2000 rpm for 9 days, and then filtered and dried under reduced pressure to obtain a crystal (form B) of compound 1. […] It was confirmed that the form B crystal is a stable form in the mixed solvent of acetone-heptane (1:1 (v/v)).
The form A crystal (3.1 mg), form B crystal (3.1 mg), and form K crystal (3.1 mg) of compound 1 were mixed, and a mixed solvent of 2-propanol-heptane (1:1 (v/v), 0.030 mL) and one grain of glass bead were added. Using a shaker (BioShaker M⋅BR-022UP manufactured by TAITEC CORPORATION), the mixture was shaken at 25° C., 2000 rpm for 9 days, and then filtered and dried under reduced pressure to obtain a crystal (form B) of compound 1. […] It was confirmed that the form B crystal is a stable form in the mixed solvent of 2-propanol-heptane (1:1 (v/v)).
The form A crystal (3.0 mg), form B crystal (3.0 mg), and form K crystal (3.1 mg) of compound 1 were mixed, and a mixed solvent of ethanol-heptane (1:1 (v/v), 0.030 mL) and one grain of glass bead were added. Using a shaker (BioShaker M⋅BR-022UP manufactured by TAITEC CORPORATION), the mixture was shaken at 25° C., 2000 rpm for 9 days, and then filtered and dried under reduced pressure to obtain a crystal (form B) of compound 1. […] It was confirmed that the form B crystal is a stable form in the mixed solvent of ethanol-heptane (1:1 (v/v)).
The form A crystal (3.0 mg), form B crystal (3.0 mg), and form K crystal (3.0 mg) of compound 1 were mixed, and a mixed solvent of acetone-water (1:1 (v/v), 0.030 mL) and one grain of glass bead were added. Using a shaker (BioShaker M⋅BR-022UP manufactured by TAITEC CORPORATION), the mixture was shaken at 25° C., 2000 rpm for 9 days, and then filtered and dried under reduced pressure to obtain a crystal (form B) of compound 1. […] It was confirmed that the form B crystal is a stable form in the mixed solvent of acetone-water (1:1 (v/v)).
The form A crystal (3.0 mg), form B crystal (3.1 mg), and form K crystal (3.1 mg) of compound 1 were mixed, and a mixed solvent of 2-propanol-water (1:1 (v/v), 0.030 mL) and one grain of glass bead were added. Using a shaker (BioShaker M⋅BR-022UP manufactured by TAITEC CORPORATION), the mixture was shaken at 25° C., 2000 rpm for 9 days, and then filtered and dried under reduced pressure to obtain a crystal (form B) of compound 1. […] It was confirmed that the form B crystal is a stable form in the mixed solvent of 2-propanol-water (1:1 (v/v)).
The form A crystal (3.1 mg), form B crystal (3.0 mg), and form K crystal (3.1 mg) of compound 1 were mixed, and a mixed solvent of ethanol-water (1:1 (v/v), 0.030 mL) and one grain of glass bead were added. Using a shaker (BioShaker M⋅BR-022UP manufactured by TAITEC CORPORATION), the mixture was shaken at 25° C., 2000 rpm for 9 days, and then filtered and dried under reduced pressure to obtain a crystal (form B) of compound 1. […] It was confirmed that the form B crystal is a stable form in the mixed solvent of ethanol-water (1:1 (v/v)). […]

Structure (SMILES) | weight reduction ([1]; crystal of Example 3-8 (from acetone/heptane)) [wt %] | weight reduction ([1]; crystal of Example 3-9 (from 2-propanol/heptane)) [wt %] | crystal form at a relative humidity of 0% [2] | stable form in slurry conversion ([3]; 2-propanol-heptane (1:1 (v/v)), 9 days) | stable form in slurry conversion ([3]; 2-propanol-water (1:1 (v/v)), 9 days) | stable form in slurry conversion ([3]; 2-propanol-water (1:4 (v/v)), 9 days) | stable form in slurry conversion ([3]; acetone-heptane (1:1 (v/v)), 9 days) | stable form in slurry conversion ([3]; acetone-water (1:1 (v/v)), 9 days) | stable form in slurry conversion ([3]; acetone-water (1:4 (v/v)), 9 days) | stable form in slurry conversion ([3]; ethanol-heptane (1:1 (v/v)), 9 days) | stable form in slurry conversion ([3]; ethanol-water (1:1 (v/v)), 9 days) | stable form in slurry conversion ([3]; ethanol-water (1:4 (v/v)), 7 days)
CCC[C@H]1C(=O)N[C@@H]([C@@H](C)CC)C(=O)N2CCC[C@H]2C(=O)N(C)[C@H]2C/C=C\CCN(C2=O)[C@@H](Cc2ccc(C(F)(F)F)cc2)C(=O)N(C)CC(=O)N[C@@H](CCc2ccc(C(F)(F)F)c(OC)c2)C(=O)N2C[C@H](OCC)C[C@H]2C(=O)N(C)C2(CCC2)C(=O)N(C)[C@@H](C2CCCC2)C(=O)N(C)[C@H](C(=O)N(C)C)CC(=O)N1C [form A] | 3 | 2 | transformed into the form J |  |  |  |  |  |  |  |  | 
CCC[C@H]1C(=O)N[C@@H]([C@@H](C)CC)C(=O)N2CCC[C@H]2C(=O)N(C)[C@H]2C/C=C\CCN(C2=O)[C@@H](Cc2ccc(C(F)(F)F)cc2)C(=O)N(C)CC(=O)N[C@@H](CCc2ccc(C(F)(F)F)c(OC)c2)C(=O)N2C[C@H](OCC)C[C@H]2C(=O)N(C)C2(CCC2)C(=O)N(C)[C@@H](C2CCCC2)C(=O)N(C)[C@H](C(=O)N(C)C)CC(=O)N1C [form B] |  |  | transformed into the form Y | a stable form | a stable form | a stable form | a stable form | a stable form | a stable form | a stable form | a stable form | a stable form
